Data: publication PMC9026428, “New Peptide Based Fluconazole Conjugates with Expanded Molecular Targets” (Pharmaceutics, 2022)
Like-named read-outs stand apart in the source and are kept apart here. No end group written: not given here.

How the values were obtained:
Candida albicans 138 = test: microbe, parasite or virus in culture; conditions: Candida albicans, 138, 24 h
Method: (§1) The assessment of antifungal potential of synthesized agents was carried out using four reference strains (C. albicans ATCC 10231, C. albicans SC5314, C. glabrata DSM […] and C. krusei DSM […]) and six clinical isolates of fluconazole-resistant C. albicans that were provided by the Hospital of Medical University of Gdansk, Poland. Moreover, four C. albicans isolates, assigned as B3, B4, Gu4 and Gu5, were used for investigation whether the synthesized fluconazole derivatives were effectively removed from the yeast cells by the drug efflux transporters, as in the case of fluconazole. These strains were kindly provided by Prof. Joachim Morschhäuser from University of Würzburg (Würzburg, Germany). Strains Gu4 and B3 were fluconazole-sensitive isolates obtained from early infection episodes, while Gu5 and B4 were the corresponding fluconazole-resistant isolates obtained from later episodes in the same patients treated with fluconazole. The lack of susceptibility of the Gu5 strain to fluconazole was a consequence of overexpression of CDR1/2 genes encoding ABC transporters, whereas the resistance of B4 strain was caused by overexpression of the MDR1 gene encoding a membrane transport protein of the major facilitator superfamily (MFS). All of these Candida spp. strains were maintained on YPD agar plates (1% (w/v) yeast extract, 2% (w/v) peptone, 2% (w/v) glucose, 2% (w/v) agar) at 30 °C for 16–24 h. For all of the assays aimed at assessing the antifungal potential of the synthesized agents, the yeasts were cultivated at 37 °C in RPMI 1640 medium (with L-glutamine, without sodium bicarbonate, Sigma-Aldrich, Darmstadt, Germany)) buffered to a pH of 7.0 with 0.165 M morpholinepropanesulfonic acid (MOPS) buffer (Sigma-Aldrich). In this study, we used the human foreskin fibroblast cell line Hs27 (ATCC CRL 1634TM) and the human endothelial cell line HUVEC (C2519A), purchased from Lonza Group AG, (Basel, Switzerland). The Hs27 cells were maintained in cell media consisting of Dulbecco’s modified Eagles medium (DMEM), (Corning, Arizona, USA) with 10% fetal bovine serum (FBS), (Corning, Port Elizabeth, South Africa), 1% penicillin/streptomycin (Sigma-Aldrich Inc., Darmstadt, Germany), and 1% L-glutamine (Corning, Arizona, USA). The human endothelial cell line was maintained in cell media consisting of Endothelial Cell Growth Medium-2 Single Quots Kit (Lonza, USA). Both cell lines were cultured in an incubator at 37 °C and 5% CO2.
(§2) Antifungal activity of the tested compounds against yeast cells was determined in 96-well plates as described in the CLSI document M27-A3 [39], with minor modifications (CLSI, 2008). […] The plates were incubated for 24 h at 37 °C. Each test was performed in triplicate. The final concentration of DMSO was ensured to be around 1% in all experiments.
(§3) For determination of minimum fungicidal concentrations (MFC), small aliquots of suspensions (around 10 μL) from each well were transferred using the pipette to YPD agar plates without inhibitors and incubated for 24 h at 37 °C.

Candida albicans 190 = test: microbe, parasite or virus in culture; conditions: Candida albicans, 190, 24 h
Method: as §1, §2, §3

Candida albicans 247 = test: microbe, parasite or virus in culture; conditions: Candida albicans, 247, 24 h
Method: as §1, §2, §3

Candida albicans 48 = test: microbe, parasite or virus in culture; conditions: Candida albicans, 48, 24 h
Method: as §1, §2, §3

Candida albicans 574 = test: microbe, parasite or virus in culture; conditions: Candida albicans, 574, 24 h
Method: as §1, §2, §3

Candida albicans 604 = test: microbe, parasite or virus in culture; conditions: Candida albicans, 604, 24 h
Method: as §1, §2, §3

[1] = tested on: Candida albicans ATCC 10231; test: microbe, parasite or virus in culture; conditions: Candida albicans, ATCC10231, 24 h
Method: as §1, §2, §3

Candida albicans B3 = test: microbe, parasite or virus in culture; conditions: Candida albicans, B3, 24 h
Method: as §1, §2, §3

Candida albicans B4 = test: microbe, parasite or virus in culture; conditions: Candida albicans, B4, 24 h
Method: as §1, §2, §3

Candida albicans Gu4 = test: microbe, parasite or virus in culture; conditions: Candida albicans, GU4, 24 h
Method: as §1, §2, §3

Candida albicans Gu5 = test: microbe, parasite or virus in culture; conditions: Candida albicans, GU5, 24 h
Method: as §1, §2, §3

Candida albicans SC 5314 = test: microbe, parasite or virus in culture; conditions: Candida albicans, SC5314, 24 h
Method: as §1, §2, §3

[2] = tested on: Candida glabrata DSM 6128; test: microbe, parasite or virus in culture; conditions: Nakaseomyces glabratus, DSM6128, 24 h
Method: as §1, §2, §3

Candida krusei DSM 11226 = test: microbe, parasite or virus in culture; conditions: Pichia kudriavzevii, DSM11226, 24 h
Method: as §1, §2, §3

[3] = tested on: Candida spp. strains tested; test: Antifungal activity against the whole panel of strains tested; assay type: cell-based; conditions: Candida; all strains of Table 2
Method: Antifungal activity of the tested compounds against yeast cells was determined in 96-well plates as described in the CLSI document M27-A3 [39], with minor modifications (CLSI, 2008). Suspensions of the microorganisms were prepared by taking one loop of pure culture into sterile water and adjusting optical density to 0.1 at 660 nm wavelength and further 50-fold dilution in RPMI 1640 medium, resulting in cell concentration of approximately 2 × 10^4 CFU/mL [21]. Then, 100 μL of cells were added to the wells of a 96-well microtiter plate that contained 16–500 μM tested compounds and 16–500 μM of FLC or 0.2–62 μM AmB. The plates were incubated for 24 h at 37 °C. Each test was performed in triplicate. […] The MIC90 was defined as the lowest concentration of drug showing no visible growth; MIC50 was defined as the concentration that yielded at least 50% growth inhibition when compared with the growth control well.

[4] = cited from earlier work
Method: Fluconazole is water-soluble, safe for patients even at a high daily dose ([…]), can be applied either intravenously or orally, and has a beneficial pharmacokinetic profile and broad spectrum of activity.

C. albicans ATCC 10231 = conditions: C. albicans ATCC 10231, RPMI-1640, 200 – 0.4 μg/mL range
Method: (§4) The selective activities of the FLC-conjugates were calculated according to the following formula
(§5) (1 picture or pasted object on this page, not shown here)

C. glabrata DSM 11226 = conditions: C. glabrata DSM 11226, RPMI-1640, 200 – 0.4 μg/mL range
Method: as §4, §5

C. krusei DSM 6128 = conditions: C. krusei DSM 6128, RPMI-1640, 200 – 0.4 μg/mL range
Method: as §4, §5

C. tropicalis (clinical) = conditions: RPMI-1640, 200 – 0.4 μg/mL range
Method: as §4, §5

Q: Which MFC (Candida albicans 138) does the source give for `C[C@@H]1[C@H](O)[C@@H](C)/C=C/C=C/C=C/C=C/C=C/C=C/C=C/[C@H](O[C@@H]2O[C@H](C)[C@@H](O)[C@H](N)[C@@H]2O)C[C@@H]2O[C@](O)(C[C@@H](O)C[C@@H](O)[C@H](O)CC[C@@H](O)C[C@@H](O)CC(=O)O[C@H]1C)C[C@H](O)[C@H]2C(=O)O` [Amphotericin B (AmpB), Amphotericin B, reference compound] here?
A: < 0.1 µM

Q: And the MIC50 (Candida albicans 138; pH 7)?
A: < 0.1 µM

Q: What about the MIC90 (Candida albicans 138; pH 7) of the same compound?
A: < 0.1 µM

Q: And the MFC (Candida albicans 190)?
A: < 0.1 µM

Q: And the MIC50 (Candida albicans 190; pH 7)?
A: < 0.1 µM

Q: What about the MIC90 (Candida albicans 190; pH 7) of the same compound?
A: < 0.1 µM

Q: And the MFC (Candida albicans 247)?
A: < 0.1 µM

Q: What about the MIC50 (Candida albicans 247; pH 7) of the same compound?
A: < 0.1 µM

Q: What about the MIC90 (Candida albicans 247; pH 7) of the same compound?
A: < 0.1 µM

Q: And the MFC (Candida albicans 48)?
A: < 0.1 µM

Q: What about the MIC50 (Candida albicans 48; pH 7) of the same compound?
A: < 0.1 µM

Q: What about the MIC90 (Candida albicans 48; pH 7) of the same compound?
A: < 0.1 µM

Q: What about the MFC (Candida albicans 574) of the same compound?
A: < 0.1 µM

Q: What about the MIC50 (Candida albicans 574; pH 7) of the same compound?
A: < 0.1 µM

Q: And the MIC90 (Candida albicans 574; pH 7)?
A: < 0.1 µM

Q: And the MFC (Candida albicans 604)?
A: < 0.1 µM

Q: What about the MIC50 (Candida albicans 604; pH 7) of the same compound?
A: < 0.1 µM

Q: What about the MIC90 (Candida albicans 604; pH 7) of the same compound?
A: < 0.1 µM

Q: And the MFC [1]?
A: < 0.1 µM

Q: And the MIC50 ([1]; pH 7)?
A: < 0.1 µM

Q: What about the MIC90 ([1]; pH 7) of the same compound?
A: < 0.1 µM

Q: What about the MFC (Candida albicans B3) of the same compound?
A: < 0.1 µM

Q: And the MIC50 (Candida albicans B3; pH 7)?
A: < 0.1 µM

Q: And the MIC90 (Candida albicans B3; pH 7)?
A: < 0.1 µM

Q: And the MFC (Candida albicans B4)?
A: < 0.1 µM

Q: What about the MIC50 (Candida albicans B4; pH 7) of the same compound?
A: < 0.1 µM

Q: What about the MIC90 (Candida albicans B4; pH 7) of the same compound?
A: < 0.1 µM

Q: What about the MFC (Candida albicans Gu4) of the same compound?
A: < 0.1 µM

Q: And the MIC50 (Candida albicans Gu4; pH 7)?
A: < 0.1 µM

Q: And the MIC90 (Candida albicans Gu4; pH 7)?
A: < 0.1 µM

Q: What about the MFC (Candida albicans Gu5) of the same compound?
A: < 0.1 µM

Q: And the MIC50 (Candida albicans Gu5; pH 7)?
A: < 0.1 µM

Q: What about the MIC90 (Candida albicans Gu5; pH 7) of the same compound?
A: < 0.1 µM

Q: What about the MFC (Candida albicans SC 5314) of the same compound?
A: < 0.1 µM

Q: And the MIC50 (Candida albicans SC 5314; pH 7)?
A: < 0.1 µM

Q: What about the MIC90 (Candida albicans SC 5314; pH 7) of the same compound?
A: < 0.1 µM

Q: What about the MFC [2] of the same compound?
A: < 0.1 µM

Q: What about the MIC50 ([2]; pH 7) of the same compound?
A: < 0.1 µM

Q: And the MIC90 ([2]; pH 7)?
A: < 0.1 µM

Q: And the MFC (Candida krusei DSM 11226)?
A: < 0.1 µM

Q: And the MIC50 (Candida krusei DSM 11226; pH 7)?
A: < 0.1 µM

Q: And the MIC90 (Candida krusei DSM 11226; pH 7)?
A: < 0.1 µM

Q: And the MIC [3]?
A: < 0.1 µM

Q: With `CCC(C)n1ncn(-c2ccc(N3CCN(c4ccc(OCC5COC(Cn6cncn6)(c6ccc(Cl)cc6Cl)O5)cc4)CC3)cc2)c1=O` (stereo not shown) [itraconazole] as the compound, how does the “incidence rate of azole-induced liver injury” value ([4]; in vivo) read?
A: 2–4%

Q: For `CC(=O)N1CCN(c2ccc(OCC3COC(Cn4ccnc4)(c4ccc(Cl)cc4Cl)O3)cc2)CC1` (stereo not shown) [ketoconazole], which “incidence rate of azole-induced liver injury” value [4] is on record?
A: 2–10%

Q: For CFQWKRAMRKVR-NH2 [HLopt2-NH2], which “MIC50” value (C. albicans ATCC 10231) is on record?
A: > 250 µg/mL

Q: And the “MIC50” value (C. glabrata DSM 11226)?
A: > 250 µg/mL

Q: What about the “MIC90” value (C. glabrata DSM 11226) of the same compound?
A: > 250 µg/mL

Q: What about the “MIC50” value (C. krusei DSM 6128) of the same compound?
A: 250 µg/mL

Q: And the “MIC90” value (C. krusei DSM 6128)?
A: 250 µg/mL

Q: What about the “MIC50” value (C. tropicalis (clinical)) of the same compound?
A: > 250 µg/mL

Q: And the “MIC90” value (C. tropicalis (clinical))?
A: > 250 µg/mL
